In patent US20250032623A1, “HETEROBIFUNCTIONAL COMPOUNDS AND THEIR USE IN TREATING DISEASE” (HALDA THERAPEUTICS OPCO, INC., priority 2021, published 2025) one finds GI50 and Kd data, which are given here for five compounds.

One test has as its system HEK293 cells. Nature of the test: Cellular growth inhibition assay (CellTiter-Glo), HEK293 cells. The class given is cell-based. As to conditions: Homo sapiens, 72 h, three days compound treatment, CellTiter-Glo 2.0, read-out: CTG HEK293 GI50. An outline of the steps:
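GI50 derived by four-parameter regression of luminescence (CellTiter-Glo 2.0) at Day 0 and Day 3, normalized to DMSO wells. Cells (HeLa, HEK293; 500/well, DMEM plus 10% FBS) were dosed with compound dilutions 24 h post-seeding and exposed for three days at 37 °C.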

In test [1] the target is T1, EGFR T790M, L858R (amino acids 669-1011 Accession Number NP_005219.2) (Homo sapiens, UniProt P00533, L858R/T790M).
T1 construct: purchased Eurofins Discovery; host or cells: mammalian cells (HEK-293)
T1 sequence (P00533 669-1011 T790M/L858R): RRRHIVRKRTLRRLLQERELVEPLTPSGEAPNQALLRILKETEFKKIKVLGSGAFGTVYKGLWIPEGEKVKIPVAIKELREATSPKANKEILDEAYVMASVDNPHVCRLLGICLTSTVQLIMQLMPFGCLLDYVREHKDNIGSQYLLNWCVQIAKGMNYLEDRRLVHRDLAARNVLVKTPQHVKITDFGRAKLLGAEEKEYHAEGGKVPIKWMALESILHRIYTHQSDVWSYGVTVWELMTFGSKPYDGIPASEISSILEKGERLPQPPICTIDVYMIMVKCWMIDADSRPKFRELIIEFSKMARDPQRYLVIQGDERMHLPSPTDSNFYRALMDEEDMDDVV
The experiment in a line: KdELECT binding assay (Eurofins Discovery), EGFR T790M, L858R. As to conditions: read-out: EGFR DM Kd. How it is done:
(§1) Exemplary compounds were tested for ability to bind to EGFR WT (amino acids 669-1011, Accession Number NP_005219.2) or EGFR T790M, L858R (amino acids 669-1011 Accession Number NP_005219.2) expressed from bacteria or mammalian cells, respectively. Compounds were tested using the KdELECT assay at Eurofins Discovery.
(§2) Kinase-tagged T7 phage strains were prepared in an E. coli host derived from the BL21 strain. E. coli were grown to log-phase and infected with T7 phage and incubated with shaking at 32° C. until lysis. The lysates were centrifuged and filtered to remove cell debris. The remaining kinases were produced in HEK-293 cells and subsequently tagged with DNA for qPCR detection. Streptavidin-coated magnetic beads were treated with biotinylated small molecule ligands for 30 minutes at room temperature to generate affinity resins for kinase assays. The liganded beads were blocked with excess biotin and washed with blocking buffer (SeaBlock (Pierce), 1% BSA, 0.05% Tween 20, 1 mM DTT) to remove unbound ligand and to reduce non-specific binding. Binding reactions were assembled by combining kinases, liganded affinity beads, and test compounds in 1× binding buffer (20% SeaBlock, 0.17×PBS, 0.05% Tween 20, 6 mM DTT). Test compounds were prepared as 111× stocks in 100% DMSO. Kd values were determined using an 11-point 3-fold compound dilution series with three DMSO control points. All compounds for Kd measurements are distributed by acoustic transfer (non-contact dispensing) in 100% DMSO. The compounds were then diluted directly into the assays such that the final concentration of DMSO was 0.9%. All reactions performed in polypropylene 384-well plate. Each was a final volume of 0.02 mL. The assay plates were incubated at room temperature with shaking for 1 hour and the affinity beads were washed with wash buffer (1× PBS, 0.05% Tween 20). The beads were then re-suspended in elution buffer (1× PBS, 0.05% Tween 20, 0.5 μM nonbiotinylated affinity ligand) and incubated at room temperature with shaking for 30 minutes. The kinase concentration in the eluates was measured by qPCR.

The next test concerns HeLa cells. The experiment in a line: Cellular growth inhibition assay (CellTiter-Glo), HeLa cells. The class given is cell-based. The conditions noted are these: Homo sapiens, 72 h, three days compound treatment, CellTiter-Glo 2.0, read-out: CTG HELA GI50. How it is done:
Exemplary compounds were tested for ability to inhibit the proliferation of HEK293 cells or HeLa cells.
HEK293 and HeLa cells were cultured in DMEM medium supplemented with 10% fetal bovine serum and 1% Penn/Strep. Cells were seeded in white 384-well plates at 500 cells/well in […] complete medium. Following seeding, plates were spun at 300×g for three minutes and cultured at 37° C. with 5% CO2 in a humidified tissue culture incubator.
After 24 hours, compounds were titrated in 100% DMSO and diluted in complete cell culture medium. […] of compound/media mixture was added to cells to bring total volume in well to […]. DMSO alone was used as a negative control. P lates were then spun at 300×g for three minutes and stored at 37° C. with 5% CO2 for three days.
On Day 0 and Day 3 of compound treatment, cell viability was quantified with CellTiter-Glo 2.0 reagent (Promega). After equilibrating microplates at room temperature for 30 minutes, 25 μL CellTiter-Glo 2.0 reagent was dispensed into each well to bring total volume to […]. Plates were mixed on shaker for 2 minutes at 500 rpm, followed by a 10-minute incubation at room temperature. Following a quick spin, luminescence readings were measured with an EnVision Plate Reader. Data was normalized to DMSO treated Day 0 and Day 3 readings. A four-parameter non-linear regression curve fit was applied to dose-response data in GraphPad Prism data analysis software to determine the half maximal growth inhibitory concentration (GI50) for each compound.

The target in the next test is T2, EGFR (Homo sapiens, UniProt P00533).
T2 construct: purchased
T2 sequence (P00533 25-1210): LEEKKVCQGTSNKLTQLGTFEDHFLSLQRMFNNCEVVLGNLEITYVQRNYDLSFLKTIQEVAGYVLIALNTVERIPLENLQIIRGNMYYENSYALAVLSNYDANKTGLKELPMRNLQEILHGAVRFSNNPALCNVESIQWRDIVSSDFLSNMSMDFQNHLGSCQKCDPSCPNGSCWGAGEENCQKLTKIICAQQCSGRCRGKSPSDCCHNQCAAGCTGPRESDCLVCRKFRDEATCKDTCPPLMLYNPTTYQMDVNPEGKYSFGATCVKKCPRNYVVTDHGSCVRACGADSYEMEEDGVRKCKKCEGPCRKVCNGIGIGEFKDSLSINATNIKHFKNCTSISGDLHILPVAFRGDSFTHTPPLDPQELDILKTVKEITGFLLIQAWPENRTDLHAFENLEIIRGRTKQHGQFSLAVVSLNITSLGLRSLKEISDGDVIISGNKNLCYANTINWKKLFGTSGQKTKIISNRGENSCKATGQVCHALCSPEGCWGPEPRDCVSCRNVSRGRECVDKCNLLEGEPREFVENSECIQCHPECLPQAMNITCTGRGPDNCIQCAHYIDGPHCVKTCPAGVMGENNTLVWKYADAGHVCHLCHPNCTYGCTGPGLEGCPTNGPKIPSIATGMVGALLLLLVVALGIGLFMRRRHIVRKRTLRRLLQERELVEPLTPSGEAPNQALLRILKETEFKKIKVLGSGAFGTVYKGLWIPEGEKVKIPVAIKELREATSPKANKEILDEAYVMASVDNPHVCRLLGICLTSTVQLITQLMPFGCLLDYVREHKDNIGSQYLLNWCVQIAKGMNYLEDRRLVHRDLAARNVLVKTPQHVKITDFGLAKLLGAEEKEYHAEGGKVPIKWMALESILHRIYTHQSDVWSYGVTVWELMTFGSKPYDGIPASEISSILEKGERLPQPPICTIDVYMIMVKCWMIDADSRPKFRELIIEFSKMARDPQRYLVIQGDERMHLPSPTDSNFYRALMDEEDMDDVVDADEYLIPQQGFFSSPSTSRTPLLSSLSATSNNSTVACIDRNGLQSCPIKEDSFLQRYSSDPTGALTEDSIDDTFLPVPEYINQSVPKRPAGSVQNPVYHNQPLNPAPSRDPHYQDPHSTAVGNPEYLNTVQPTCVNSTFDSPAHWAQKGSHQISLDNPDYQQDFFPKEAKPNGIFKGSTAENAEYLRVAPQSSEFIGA
Nature of the test: KdELECT binding assay, EGFR. In outline:
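Competition binding: DNA- or T7 phage-tagged EGFR was incubated 1 h at room temperature with immobilized ligand beads and an 11-point 3-fold compound series (0.9% DMSO final). Bead-bound kinase was eluted and quantified by qPCR to derive Kd.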

Test [2] concerns the target T3, EGFR WT (amino acids 669-1011, Accession Number NP_005219.2) (Homo sapiens, UniProt P00533).
T3 construct: purchased Eurofins Discovery; host or cells: bacteria (E. coli, BL21-derived, T7 phage)
Nature of the test: KdELECT binding assay (Eurofins Discovery), EGFR WT. As to the method: as §1, §2

Structures are written as SMILES. pKd: −log10 of the molar value. A value given as a limit tells only on which side of the number the result lay.

T3 sequence (P00533 669-1011): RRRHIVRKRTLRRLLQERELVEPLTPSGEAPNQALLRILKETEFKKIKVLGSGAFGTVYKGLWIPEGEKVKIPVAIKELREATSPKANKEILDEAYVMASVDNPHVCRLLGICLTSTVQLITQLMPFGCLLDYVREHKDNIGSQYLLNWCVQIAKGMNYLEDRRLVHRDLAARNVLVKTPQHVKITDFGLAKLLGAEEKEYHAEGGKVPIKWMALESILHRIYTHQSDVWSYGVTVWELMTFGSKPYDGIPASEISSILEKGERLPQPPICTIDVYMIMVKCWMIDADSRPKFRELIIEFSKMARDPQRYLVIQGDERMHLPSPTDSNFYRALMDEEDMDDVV

In general, GI50 refers to the concentration at which growth is held to half of that of the control. As usually defined, the pKd is −log10 of the Kd, conventionally taken in molar units. `C=CC(=O)N[C@@H]1CN(c2nc(Nc3cn(CCOCCOCCOCCOCCNC(=O)c4ccc(Nc5ncc6c(n5)N(C5CCCC5)[C@H](CC)C(=O)N6C)c(OC)c4)nc3OC)c3ncn(C)c3n2)C[C@H]1F` [Compound I-125]: the GI50 with HEK293 cells was 1.5 to 5 µM; in the test with HeLa cells it was more than 5 µM. The values for the pKd (in test [1]; at EGFR; in test [2]) were more than 7.30, 6.30 to 7.30 and 6.30 to 7.30, respectively.

For `CCC1C(=O)N(C)c2cnc(Nc3ccc(C(=O)NCCOCCOCCOCCOCCN(C)CC=CC(=O)NC4CN(c5nc(Nc6cn(C)nc6OC)c6ncn(C)c6n5)CC4F)cc3OC)nc2N1C1CCCC1` [Compound I-126, 4-[[(7R)-8-cyclopentyl-7-ethyl-5-methyl-6-oxo-7H-pteridin-2-yl]amino]-N-[2-[2-[2-[2-[2-[[(E)-4-[ [(3R,4R)-4-fluoro-1-1[6-1[(3-methoxy-1-methyl-pyrazol-4-yl)amino]-9-methyl-purin-2-yl]pyrrolidin-3-yl]amino]-4-oxo-but-2-enyl]-methyl-amino]ethoxy]ethoxy]ethoxy]ethoxy]ethyl]-3-methoxy-benzamide], the GI50 in the test on HEK293 cells was less than 0.5 µM; in the test on HeLa cells, 0.5 to 1.5 µM. The pKd in test [1] is 6.30 to 7.30; at EGFR, 5.60 to 6.30; in test [2], 5.60 to 6.30.

Regarding `C=CC(=O)Nc1cc(Nc2nccc(-c3cn(C)c4ccccc34)n2)c(OC)cc1N(C)CCN(C)CCOCCON(C)C(=O)N1N=C(c2cc(F)ccc2F)S[C@@]1(CCCN)c1ccccc1` [Compound I-127, (2S)-2-(3-aminopropyl)-5-(2,5-difluorophenyl)-N-[2-[2-[2-[5-methoxy-N-methyl-4-[[4-(1-methylindol-3-yl)pyrimidin-2-yl]amino]-2-(prop-2-enoylamino)anilino]ethyl-methyl-amino]ethoxy]ethoxy]-N-methyl-2-phenyl-1,3,4-thiadiazole-3-carboxamide], the GI50 lay within 0.5 to 1.5 µM in the test with HEK293 cells and 1.5 to 5 µM in the test with HeLa cells. The values for the pKd (in test [1]; at EGFR; in test [2]) were more than 7.30, 6.30 to 7.30 and 6.30 to 7.30, respectively.

For `C=CC(=O)N[C@@H]1CN(c2nc(Nc3cn(CCOCCOCCNC(=O)c4ccc(Nc5ncc6c(n5)N(C5CCCC5)[C@H](CC)C(=O)N6C)c(OC)c4)nc3OC)c3ncn(C)c3n2)C[C@H]1F` [Compound I-128, 4-[[(7R)-8-cyclopentyl-7-ethyl-5-methyl-6-oxo-7H-pteridin-2-yl]amino]-N-[2[22-[2-[4-[[2-[(3R,4R)-3-fluoro-4-(prop-2-enoylamino)pyrrolidin-1-yl]-9-methyl-purin-6-yl]amino]-3-methoxy-pyrazol-1-yl]ethoxy]ethoxy]ethyl]-3-methoxy-benzamide], the concentration for 50% growth inhibition (GI50) in the test on HEK293 cells and with HeLa cells was 0.5 to 1.5 µM in each case. Besides, the pKd in test [1] was more than 7.30; on EGFR, 6.30 to 7.30; in test [2], 6.30 to 7.30.

With `CC[C@@H]1C(=O)N(C)c2cnc(Nc3ccc(C(=O)NCCOCCOCCOCCOCCN(C)C/C=C/C(=O)N[C@@H]4CN(c5nc(Nc6cn(C)nc6OC)c6ncn(C)c6n5)C[C@H]4F)cc3OC)nc2N1C1CCCC1` [Compound I-129, 4-[[(7R)-8-cyclopentyl-7-ethyl-5-methyl-6-oxo-7H-pteridin-2-yl]amino]-N-[2-[2-[2-[2-[2-[[(E)-4-[[(3R,4R)-4-fluoro-1-[6-[(3-methoxy-1-methyl-pyrazol-4-yl)amino]-9-methyl-purin-2-yl]pyrrolidin-3-yl]amino]-4-oxo-but-2-enyl]-methyl-amino]ethoxy]ethoxy]ethoxy]ethoxy]ethyl]-3-methoxy-benzamide], the GI50 with HEK293 cells and in the test on HeLa cells was 0.5 to 1.5 µM throughout. Besides, the pKd in test [1] is 6.30 to 7.30; at EGFR, 5.60 to 6.30; in test [2], 5.60 to 6.30.
